Laboratory results from PubChem BioAssay (NCI).
Where “and” joins values, the source holds several entries; their conditions need not be identical. Equal entries are not always repeated.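 Dose response: 5 concentrations. Exposure: 48 h. Format: 96-well plates. Endpoint: linear interpolation; highest concentration if not reached. GI50 is the concentration that inhibits growth by half. TGI is the concentration that stops growth completely.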

How the values were obtained:
Test in all cases: inhibition of tumour cell growth, NCI panel, 48 h
[1] = tested on: OVCAR-8 ovarian
[2] = tested on: NCI-H226 lung
[3] = tested on: A549 NSCLC
[4] = tested on: M14 melanoma
[5] = tested on: ACHN renal
[6] = tested on: SNB-75 CNS
[7] = tested on: MALME-3M melanoma
[8] = tested on: MDA-MB-231 breast
[9] = tested on: MCF7 breast
[10] = tested on: EKVX NSCLC
[11] = tested on: PC-3 prostate

Structure (SMILES)	TGI [1]	TGI [2]	TGI [3]	TGI [4]	TGI [5]	TGI [6]	TGI [7]	TGI [8]	TGI [9]	TGI [10]	TGI [11]	GI50 [8]	GI50 [1]	GI50 [5]	GI50 [11]	GI50 [9]	GI50 [6]	GI50 [10]	GI50 [7]
CC12O[C@H](c3ccccc3)[C@H](c3ccccc3)N1C(=O)C1(C(=O)OCc3ccccc3)CC12 (stereo partly drawn)	> 100 µM	> 100 µM	> 100 µM	> 100 µM	> 100 µM	> 100 µM	> 100 µM												
COC(=O)C1=NN2c3ccccc3C(=O)OCCC2C1 (stereo not drawn)	> 100 µM	> 100 µM	> 100 µM		> 100 µM	> 100 µM	> 100 µM	> 100 µM	> 100 µM	> 100 µM	> 100 µM								
C[n+]1c2ccccc2c(CNC(CCC(N)=O)C(=O)O)c2ccccc21 (stereo not drawn)	7.55 µM	18.3 µM	11.8 µM	12.2 µM	5.41 µM	12.5 µM	10.6 µM		7.73 µM	12.9 µM	10.8 µM								
CC(C)CCCC(C)[C@H]1CC[C@H]2[C@@H]3CC[C@H]4C[C@@H](CCC=C(c5cc(Cl)c(O)c(C(=O)OC(C)(C)C)c5)c5cc(Cl)c(O)c(C(=O)OC(C)(C)C)c5)CC[C@]4(C)[C@H]3CC[C@]12C (stereo partly drawn)			> 50 µM	> 50 µM		> 50 µM		> 50 µM	> 50 µM	> 50 µM	> 50 µM								
Cc1ccc(NC(=O)CC(=O)n2nc(-c3ccccc3)c(N=Nc3ccc(Cl)cc3)c2-c2ccccc2)cc1	60.6 µM	> 100 µM	64.4 µM	> 100 µM	> 100 µM	70.9 µM	> 100 µM			> 100 µM									
C=C1CC/C=C(/C(=O)O)CC[C@H]2[C@@H]1CC2(C)C		> 100 µM	> 100 µM	> 100 µM	> 100 µM		> 100 µM	> 100 µM	> 100 µM	> 100 µM	> 100 µM								
CC1(C)OCC2OC3([C@H](O)CCO)OC(C)(C)OC3C2O1 (stereo partly drawn)	> 100 µM	> 100 µM	> 100 µM	> 100 µM	> 100 µM	> 100 µM		> 100 µM	> 100 µM	> 100 µM	> 100 µM								
OC(c1cccs1)c1cc2ccccc2s1 (stereo not drawn)	> 10 µM	> 10 µM	> 10 µM	> 10 µM	> 10 µM	> 10 µM		> 10 µM	> 10 µM	> 10 µM	> 10 µM								
Cc1cc(N(CCC#N)CCC#N)ccc1/C=C(\NC(=O)/C=C/c1ccccc1)NC(=O)Nc1ccc(Cl)cc1	> 100 µM	> 100 µM	> 100 µM	> 100 µM	> 100 µM		> 100 µM			> 100 µM									
C[C@@]12CC[C@H]3[C@@H]4CCC(=O)N[C@@]4(C)CC[C@@H]3[C@@]1(C)CC[C@H](OC(=O)Cc1ccc(N(CCCl)CCCl)cc1)C2	33.1 µM	33.2 µM	30.4 µM			33.5 µM	36.1 µM		24.7 µM	31.3 µM									
Cc1ccc(C(=O)CC(Cl)=C(Cl)Cl)cc1	> 100 µM	> 100 µM	> 100 µM	> 100 µM	> 100 µM	> 100 µM	> 100 µM	> 100 µM	> 100 µM		> 100 µM								
O=[N+]([O-])c1ccc(NC2OCC(O)C(O)C2O)cc1 (stereo not drawn)	> 100 µM	> 100 µM	> 100 µM	> 100 µM	> 100 µM	> 100 µM	> 100 µM			> 100 µM									
OC1C(O)C(O)C(O)C(O)C1O (stereo not drawn)	> 1000 µM	> 1000 µM	> 1000 µM	> 1000 µM	> 1000 µM	> 1000 µM	> 1000 µM	> 1000 µM	> 1000 µM		> 1000 µM								
CCOC(=O)CCC(C(=O)OCC)n1nc2ccc(Nc3c(C)[n+]([O-])c4cc(Cl)ccc4[n+]3[O-])cc2n1 (stereo not drawn)	> 100 µM	> 100 µM	> 100 µM	> 100 µM	> 100 µM	> 100 µM	> 100 µM		> 100 µM	> 100 µM	> 100 µM								
Cc1cc2c(c3oc(C(O)(CO)C4CO4)cc(=O)c13)C(=O)c1c(O)cccc1C2=O (stereo not drawn)		0.00209 µM	0.0139 µM and 0.0213 µM and 0.0606 µM		0.00524 µM	0.00395 µM and 0.000596 µM	0.00527 µM and 0.00231 µM and 0.0152 µM	0.00843 µM and 0.00411 µM		0.0171 µM and 0.0378 µM									
O=C1CN(c2ccc(Cl)cc2)C(=O)CN1CCN1CC(=O)N(c2ccc(Cl)cc2)CC1=O	> 100 µM		> 100 µM	> 100 µM	> 100 µM	> 100 µM	> 100 µM		> 100 µM	> 100 µM	> 100 µM								
CN(C)c1ccc(/C=C/c2sc3ccc4ccccc4c3[n+]2C)cc1	1.67 µM				> 100 µM			2.62 µM			1.71 µM	0.526 µM	0.285 µM	0.537 µM	0.315 µM				
CN1CCN(CC(=O)Nc2ccc3ncnc(Nc4ccc(Oc5cccc(C(F)(F)F)c5)c(Cl)c4)c3c2)CC1					2.33 µM	2.67 µM	3.05 µM	3.3 µM	3 µM	2.7 µM	3.26 µM	1.78 µM		1.12 µM	1.69 µM	1.48 µM	1.35 µM	1.32 µM	1.56 µM
Cn1c(C(C#N)c2cc(Cl)ncn2)nc2ccccc21 (stereo not drawn)	> 100 µM	> 100 µM	> 100 µM	> 100 µM	> 100 µM	> 100 µM	> 100 µM	> 100 µM		> 100 µM									
O=c1ccc2ccccc2o1	> 100 µM	> 100 µM	> 100 µM	> 100 µM	> 100 µM	> 100 µM	> 100 µM			> 100 µM									
CCOC(OCC)C(CC)[Se]c1ccccc1[N+](=O)[O-] (stereo not drawn)	49.9 µM	18.4 µM	> 63.3 µM	15.3 µM	> 100 µM	> 100 µM	> 100 µM	> 100 µM		> 100 µM	> 100 µM								
C#CC(O)/C=C/CCCCCCC#CC/C=C\CC#CCCCCCC/C=C/C(O)C#C (stereo not drawn)	13.1 µM	14 µM	10.2 µM	2.26 µM	13.7 µM	20.9 µM		8.9 µM	25.9 µM	5.23 µM	24.4 µM								
